# Assay results published in article PMC8429728, “TNK1 is a ubiquitin-binding and 14-3-3-regulated kinase that can be targeted to block tumor growth” (Nature Communications, 2021).
# Where two headings read alike, the source gives them in different places.
# Experiments:
# Experiment in all cases: biochemical
# Design in all cases: Reaction Biology 371-kinase panel at Km ATP, per cent enzyme activity relative to DMSO, single dose in duplicate
# GRK4 = GRK4 (Homo sapiens, UniProt P32298); details: duplicate measurements, Km ATP
# Sequence of GRK4 (P32298 whole entry): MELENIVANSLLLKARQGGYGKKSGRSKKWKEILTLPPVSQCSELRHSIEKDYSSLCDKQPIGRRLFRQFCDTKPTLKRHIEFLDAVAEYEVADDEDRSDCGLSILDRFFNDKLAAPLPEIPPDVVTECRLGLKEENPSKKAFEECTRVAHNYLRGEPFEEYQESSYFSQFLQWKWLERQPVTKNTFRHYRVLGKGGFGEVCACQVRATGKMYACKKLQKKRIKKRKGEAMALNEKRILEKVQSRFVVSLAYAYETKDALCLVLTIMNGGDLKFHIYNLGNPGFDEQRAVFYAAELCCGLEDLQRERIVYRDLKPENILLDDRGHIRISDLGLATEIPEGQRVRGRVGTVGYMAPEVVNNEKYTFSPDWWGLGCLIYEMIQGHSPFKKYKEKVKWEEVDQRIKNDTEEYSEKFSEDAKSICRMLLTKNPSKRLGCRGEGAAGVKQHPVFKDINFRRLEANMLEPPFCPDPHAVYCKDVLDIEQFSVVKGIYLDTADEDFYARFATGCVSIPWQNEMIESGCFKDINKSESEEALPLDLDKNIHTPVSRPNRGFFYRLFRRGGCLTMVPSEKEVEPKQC
# How it was run: (§1)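 First, kinases from a 371-member panel were exposed in vitro to 300 nM inhibitor. Next, % enzyme activity versus DMSO was computed. Finally, IC50s were derived by sigmoidal dose-response fitting with variable slope and a zero bottom constraint.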
# CDK1/cyclin A = CDK1/cyclin A (Homo sapiens, UniProt P06493); details: duplicate measurements, Km ATP
# How it was run: as §1
# DYRK1B = DYRK1B (Homo sapiens, UniProt Q9Y463); details: duplicate measurements, Km ATP
# Sequence of DYRK1B (Q9Y463 whole entry): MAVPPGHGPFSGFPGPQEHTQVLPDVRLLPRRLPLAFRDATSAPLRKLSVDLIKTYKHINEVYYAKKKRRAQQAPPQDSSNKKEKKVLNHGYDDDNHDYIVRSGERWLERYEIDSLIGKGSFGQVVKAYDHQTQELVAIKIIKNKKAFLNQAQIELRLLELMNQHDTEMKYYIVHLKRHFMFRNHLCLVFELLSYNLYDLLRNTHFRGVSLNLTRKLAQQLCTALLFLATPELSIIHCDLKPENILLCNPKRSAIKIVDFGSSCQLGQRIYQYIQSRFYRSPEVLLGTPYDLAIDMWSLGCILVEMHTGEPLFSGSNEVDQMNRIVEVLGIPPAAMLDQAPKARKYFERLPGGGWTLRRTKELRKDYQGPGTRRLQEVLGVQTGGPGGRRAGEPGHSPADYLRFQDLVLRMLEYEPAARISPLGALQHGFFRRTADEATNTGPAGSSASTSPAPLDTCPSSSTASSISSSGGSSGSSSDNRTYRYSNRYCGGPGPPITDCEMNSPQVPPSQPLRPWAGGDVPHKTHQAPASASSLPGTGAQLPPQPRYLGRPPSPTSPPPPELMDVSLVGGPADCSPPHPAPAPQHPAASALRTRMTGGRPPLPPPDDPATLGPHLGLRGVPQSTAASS
# How it was run: as §1
# TAOK1 = TAOK1 (Homo sapiens, UniProt Q7L7X3); details: duplicate measurements, Km ATP
# How it was run: as §1
# TBK1 = TBK1 (Homo sapiens, UniProt Q9UHD2); details: duplicate measurements, Km ATP
# How it was run: as §1
# PKCzeta = biological target: T1, PKCzeta (Homo sapiens, UniProt Q05513); details: duplicate measurements, Km ATP
# T1 construct: gene PRKCZ
# How it was run: as §1
# PLK4/SAK = PLK4/SAK (Homo sapiens, UniProt O00444); details: duplicate measurements, Km ATP
# Sequence of PLK4/SAK (O00444 whole entry): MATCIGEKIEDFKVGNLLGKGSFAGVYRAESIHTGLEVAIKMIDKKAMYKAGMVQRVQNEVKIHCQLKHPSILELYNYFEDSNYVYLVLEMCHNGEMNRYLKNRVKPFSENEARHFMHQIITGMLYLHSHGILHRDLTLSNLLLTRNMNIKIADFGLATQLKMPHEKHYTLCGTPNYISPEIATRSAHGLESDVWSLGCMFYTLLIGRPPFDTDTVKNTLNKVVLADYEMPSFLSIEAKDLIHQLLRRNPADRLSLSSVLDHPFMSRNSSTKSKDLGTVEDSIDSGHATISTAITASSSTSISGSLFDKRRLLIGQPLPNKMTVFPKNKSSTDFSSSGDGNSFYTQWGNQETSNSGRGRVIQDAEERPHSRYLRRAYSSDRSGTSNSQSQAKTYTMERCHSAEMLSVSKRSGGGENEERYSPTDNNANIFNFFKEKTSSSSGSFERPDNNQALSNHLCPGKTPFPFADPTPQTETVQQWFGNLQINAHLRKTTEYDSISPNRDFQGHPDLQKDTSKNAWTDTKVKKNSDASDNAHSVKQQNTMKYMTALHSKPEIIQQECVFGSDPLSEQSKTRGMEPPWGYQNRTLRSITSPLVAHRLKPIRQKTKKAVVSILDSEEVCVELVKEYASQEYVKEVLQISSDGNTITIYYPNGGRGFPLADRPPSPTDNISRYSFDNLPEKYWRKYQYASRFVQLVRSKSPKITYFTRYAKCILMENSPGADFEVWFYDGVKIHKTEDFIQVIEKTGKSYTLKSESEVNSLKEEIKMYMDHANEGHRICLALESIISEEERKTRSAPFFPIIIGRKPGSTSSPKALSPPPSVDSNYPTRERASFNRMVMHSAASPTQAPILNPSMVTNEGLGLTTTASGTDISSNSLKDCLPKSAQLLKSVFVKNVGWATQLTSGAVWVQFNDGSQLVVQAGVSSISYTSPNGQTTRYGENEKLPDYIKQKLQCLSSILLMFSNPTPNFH
# How it was run: as §1
# CDK17/cyclin Y (PCTK2) = CDK17/cyclin Y (PCTK2) (Homo sapiens, UniProt Q00537); details: duplicate measurements, Km ATP; read-out: % Enzyme Activity (relative to DMSO controls) / TP-0005801 (0.3µM) / Data 1
# How it was run: as §1
# CDK3/cyclin E2 = CDK3/cyclin E2 (Homo sapiens, UniProt Q00526); details: duplicate measurements, Km ATP
# How it was run: as §1
# CAMKK2 = CAMKK2 (Homo sapiens, UniProt Q96RR4); details: duplicate measurements, Km ATP
# Sequence of CAMKK2 (Q96RR4 whole entry): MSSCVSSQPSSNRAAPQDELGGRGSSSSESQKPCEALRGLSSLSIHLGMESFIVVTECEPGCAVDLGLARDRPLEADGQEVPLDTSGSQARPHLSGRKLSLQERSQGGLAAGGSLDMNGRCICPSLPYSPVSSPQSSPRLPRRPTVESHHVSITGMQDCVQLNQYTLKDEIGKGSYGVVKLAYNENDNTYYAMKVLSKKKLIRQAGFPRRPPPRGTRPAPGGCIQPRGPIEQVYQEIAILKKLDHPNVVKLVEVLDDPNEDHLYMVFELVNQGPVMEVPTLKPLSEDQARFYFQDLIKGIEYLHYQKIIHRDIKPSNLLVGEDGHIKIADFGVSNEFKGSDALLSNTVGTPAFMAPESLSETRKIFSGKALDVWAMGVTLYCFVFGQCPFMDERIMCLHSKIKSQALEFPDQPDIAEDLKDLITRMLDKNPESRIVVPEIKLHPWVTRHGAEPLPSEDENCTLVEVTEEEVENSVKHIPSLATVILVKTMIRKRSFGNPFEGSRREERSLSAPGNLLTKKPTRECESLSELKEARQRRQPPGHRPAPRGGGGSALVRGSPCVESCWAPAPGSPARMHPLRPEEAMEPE
# How it was run: as §1
# AKT3 = AKT3 (Homo sapiens, UniProt Q9Y243); details: duplicate measurements, Km ATP
# Sequence of AKT3 (Q9Y243 whole entry): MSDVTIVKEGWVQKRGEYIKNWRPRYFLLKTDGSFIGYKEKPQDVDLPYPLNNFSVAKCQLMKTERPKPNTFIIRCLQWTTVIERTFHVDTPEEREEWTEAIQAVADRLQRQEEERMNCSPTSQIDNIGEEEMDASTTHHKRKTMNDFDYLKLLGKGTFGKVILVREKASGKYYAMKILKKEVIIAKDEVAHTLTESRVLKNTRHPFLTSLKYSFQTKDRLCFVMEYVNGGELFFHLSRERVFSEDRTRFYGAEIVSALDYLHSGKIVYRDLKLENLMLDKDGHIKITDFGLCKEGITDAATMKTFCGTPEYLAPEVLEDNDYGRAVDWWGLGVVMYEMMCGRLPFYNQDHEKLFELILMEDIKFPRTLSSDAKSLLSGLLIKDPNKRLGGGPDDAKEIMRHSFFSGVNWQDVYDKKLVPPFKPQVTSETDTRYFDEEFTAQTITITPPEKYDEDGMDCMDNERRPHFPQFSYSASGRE
# How it was run: as §1
# CAMK1a = biological target: T2, CAMK1a (Homo sapiens, UniProt Q14012); details: duplicate measurements, Km ATP
# T2 construct: gene CAMK1
# T2 sequence (Q14012 whole entry): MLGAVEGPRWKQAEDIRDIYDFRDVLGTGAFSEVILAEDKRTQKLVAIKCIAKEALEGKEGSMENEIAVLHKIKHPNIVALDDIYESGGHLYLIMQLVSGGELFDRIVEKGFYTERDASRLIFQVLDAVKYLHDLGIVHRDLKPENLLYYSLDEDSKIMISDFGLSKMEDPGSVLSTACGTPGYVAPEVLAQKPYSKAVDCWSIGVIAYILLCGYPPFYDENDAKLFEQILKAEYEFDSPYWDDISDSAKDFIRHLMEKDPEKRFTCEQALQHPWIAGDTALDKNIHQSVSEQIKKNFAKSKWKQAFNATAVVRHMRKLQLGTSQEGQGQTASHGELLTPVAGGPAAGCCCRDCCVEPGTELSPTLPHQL
# How it was run: as §1
# CLK3 = CLK3 (Homo sapiens, UniProt P49761); details: duplicate measurements, Km ATP
# How it was run: as §1
# CK1G3 = biological target: T3, CK1G3 (Homo sapiens, UniProt Q9Y6M4); details: duplicate measurements, Km ATP
# T3 construct: gene CSNK1G3
# How it was run: as §1
# PKN2/PRK2 = PKN2/PRK2 (Homo sapiens, UniProt Q16513); details: duplicate measurements, Km ATP
# How it was run: as §1
# PKCepsilon = biological target: T4, PKCepsilon (Homo sapiens, UniProt Q02156); details: duplicate measurements, Km ATP
# T4 construct: gene PRKCE
# How it was run: as §1
# ROCK1 = ROCK1 (Homo sapiens, UniProt Q13464); details: duplicate measurements, Km ATP
# Sequence of ROCK1 (Q13464 whole entry): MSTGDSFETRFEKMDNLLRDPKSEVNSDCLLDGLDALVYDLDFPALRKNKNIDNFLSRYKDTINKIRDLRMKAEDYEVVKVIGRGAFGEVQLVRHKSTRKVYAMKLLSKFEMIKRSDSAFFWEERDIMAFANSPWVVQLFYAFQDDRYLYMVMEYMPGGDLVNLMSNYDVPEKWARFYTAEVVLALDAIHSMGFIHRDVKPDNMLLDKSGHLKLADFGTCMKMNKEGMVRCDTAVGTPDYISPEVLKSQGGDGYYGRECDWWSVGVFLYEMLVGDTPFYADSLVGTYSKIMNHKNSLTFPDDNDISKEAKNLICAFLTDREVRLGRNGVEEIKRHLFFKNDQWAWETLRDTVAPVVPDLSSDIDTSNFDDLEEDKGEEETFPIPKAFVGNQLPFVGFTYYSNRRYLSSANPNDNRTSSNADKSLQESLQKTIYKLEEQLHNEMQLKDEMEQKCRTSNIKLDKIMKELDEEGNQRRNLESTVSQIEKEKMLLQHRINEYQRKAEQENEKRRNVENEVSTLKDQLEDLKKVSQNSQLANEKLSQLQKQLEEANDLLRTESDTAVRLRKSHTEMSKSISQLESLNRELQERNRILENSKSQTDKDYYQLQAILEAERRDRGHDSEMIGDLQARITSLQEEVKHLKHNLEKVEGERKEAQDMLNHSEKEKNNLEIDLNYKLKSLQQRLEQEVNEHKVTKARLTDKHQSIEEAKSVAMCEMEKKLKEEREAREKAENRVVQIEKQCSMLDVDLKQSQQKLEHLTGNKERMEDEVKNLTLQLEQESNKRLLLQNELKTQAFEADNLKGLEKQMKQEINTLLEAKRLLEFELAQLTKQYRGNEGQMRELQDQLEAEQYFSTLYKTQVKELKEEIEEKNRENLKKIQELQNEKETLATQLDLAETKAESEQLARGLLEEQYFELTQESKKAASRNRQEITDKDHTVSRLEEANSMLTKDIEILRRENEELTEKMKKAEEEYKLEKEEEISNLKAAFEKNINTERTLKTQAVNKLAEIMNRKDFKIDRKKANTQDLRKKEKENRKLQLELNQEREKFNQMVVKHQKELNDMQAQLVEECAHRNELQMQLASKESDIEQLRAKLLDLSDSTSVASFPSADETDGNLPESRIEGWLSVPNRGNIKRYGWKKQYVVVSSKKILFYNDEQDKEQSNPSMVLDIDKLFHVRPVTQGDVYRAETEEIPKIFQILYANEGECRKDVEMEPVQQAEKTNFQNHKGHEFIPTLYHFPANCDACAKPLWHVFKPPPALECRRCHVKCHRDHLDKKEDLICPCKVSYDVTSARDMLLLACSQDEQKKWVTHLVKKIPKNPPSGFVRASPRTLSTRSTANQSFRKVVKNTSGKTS
# How it was run: as §1
# DDR2 = DDR2 (Homo sapiens, UniProt Q16832); details: duplicate measurements, Km ATP
# How it was run: as §1
# CK1g1 = biological target: T5, CK1g1 (Homo sapiens, UniProt Q9HCP0); details: duplicate measurements, Km ATP
# T5 construct: gene CSNK1G1
# How it was run: as §1
# IKKa/CHUK = IKKa/CHUK (Homo sapiens, UniProt O15111); details: duplicate measurements, Km ATP
# How it was run: as §1
# [1] = read-out: % Enzyme Activity (relative to DMSO controls) / TP-0005801 (0.3µM) / Data 1
# [2] = read-out: % Enzyme Activity (relative to DMSO controls) / TP-0005801 (0.3µM) / Data 2
compound,measurement,setting,value
COc1cc(N2CCN(C)CC2)c(C)cc1Nc1ncc(Br)c(Nc2cccnc2N(C)C)n1 [TP-5801],remaining activity at 0.3 µM,GRK4; [1],109%
same,remaining activity at 0.3 µM,GRK4; [2],108%
same,remaining activity at 0.3 µM,CDK1/cyclin A; [1],102%
same,remaining activity at 0.3 µM,CDK1/cyclin A; [2],101%
same,remaining activity at 0.3 µM,DYRK1B; [1],77.1%
same,remaining activity at 0.3 µM,DYRK1B; [2],75.8%
same,remaining activity at 0.3 µM,TAOK1; [1],73.3%
same,remaining activity at 0.3 µM,TAOK1; [2],68.3%
same,remaining activity at 0.3 µM,TBK1; [1],97.8%
same,remaining activity at 0.3 µM,TBK1; [2],96.4%
same,remaining activity at 0.3 µM,PKCzeta; [1],97.2%
same,remaining activity at 0.3 µM,PKCzeta; [2],97.1%
same,remaining activity at 0.3 µM,PLK4/SAK; [1],74.8%
same,remaining activity at 0.3 µM,PLK4/SAK; [2],72.8%
same,remaining activity at 0.3 µM,CDK17/cyclin Y (PCTK2),101%
same,remaining activity at 0.3 µM,CDK3/cyclin E2; [1],95.5%
same,remaining activity at 0.3 µM,CDK3/cyclin E2; [2],95.1%
same,remaining activity at 0.3 µM,CAMKK2; [1],31.9%
same,remaining activity at 0.3 µM,CAMKK2; [2],30.2%
same,remaining activity at 0.3 µM,AKT3; [1],105%
same,remaining activity at 0.3 µM,AKT3; [2],98.7%
same,remaining activity at 0.3 µM,CAMK1a; [1],92.6%
same,remaining activity at 0.3 µM,CAMK1a; [2],91.5%
same,remaining activity at 0.3 µM,CLK3; [1],79.1%
same,remaining activity at 0.3 µM,CLK3; [2],77.3%
same,remaining activity at 0.3 µM,CK1G3; [1],94.7%
same,remaining activity at 0.3 µM,CK1G3; [2],93.6%
same,remaining activity at 0.3 µM,PKN2/PRK2; [1],97.2%
same,remaining activity at 0.3 µM,PKN2/PRK2; [2],95.9%
same,remaining activity at 0.3 µM,PKCepsilon; [1],93.6%
same,remaining activity at 0.3 µM,PKCepsilon; [2],93.3%
same,remaining activity at 0.3 µM,ROCK1; [1],99.8%
same,remaining activity at 0.3 µM,ROCK1; [2],96.7%
same,remaining activity at 0.3 µM,DDR2; [1],77.1%
same,remaining activity at 0.3 µM,DDR2; [2],75.8%
same,remaining activity at 0.3 µM,CK1g1; [1],88.5%
same,remaining activity at 0.3 µM,CK1g1; [2],87.8%
same,remaining activity at 0.3 µM,IKKa/CHUK; [1],99.5%
same,remaining activity at 0.3 µM,IKKa/CHUK; [2],94.3%
